Columns and labels:
mouse glioma cells (C6) = experiment: In vitro toxicity / cell growth inhibition, XTT assay, C6 cells; format: cell-based; conditions: 100 μM, 12 hours later
Description: Place 150 μL of a mixture liquid containing 10000 mouse glioma cells (C6) into every well of a 96-well culture plate. Place the culture plates in a humidified incubator at a temperature of 37 C.° and with 5% CO2 to enable adherent growth of the cells. […] Once cell counting begins, remove RPMI1640 and add 120 μL of an XTT reaction liquid (2,3-Bis(2-methoxy-4-nitro-5-sulfophenyl)-2H-tetrazolium-5-carboxanili de inner salt).

[1] = Storage stability, residual activity by Bratton-Marshall assay
Source text: Use the Bratton-Marshall assay to detect the residual activities after the storages of 1-30 days for comparing the storage stabilities. Refer to FIGS. 5(a)-5(c).

human glioma cells (U87) = experiment: In vitro toxicity / cell growth inhibition, XTT assay, U87 cells; format: cell-based; conditions: 100 μM, 72 hours later
Description: Place 150 μL of a mixture liquid containing 10000 human glioma cells (U87) into every well of a 96-well culture plate. Place the culture plates in a humidified incubator at a temperature of 37 C.° and with 5% CO2 to enable adherent growth of the cells. […] Once cell counting begins, remove RPMI1640 and add 120 μL of an XTT reaction liquid (2,3-Bis(2-methoxy-4-nitro-5-sulfophenyl)-2H-tetrazolium-5-carboxanili de inner salt).

With `O=NN(CCCl)C(=O)NCCCl` [BCNU, 1,3-bis(2-chloroethyl)-1-nitrosourea] the solubility in water (Solubility in water) was “low solubility in water”, the “C6 cell growth-inhibition ratio” value (mouse glioma cells (C6)) was 53% and the half-life ([1]; storing at 4° C.) was 300 h. The half-life ([1]; storing at 25° C.) was 22 h, the half-life ([1]; storing at 37° C.) was 12 h and the remains after storage ([1]; stored for 30 days) was 22%. For the same compound, the “U87 cell growth-inhibition ratio” value (human glioma cells (U87)) was 49%.
